Values of other authors in patent publication US20230312703A1, “Method of Treating Psoriasis with IL-23 Specific Antibody” (Janssen Biotech, Inc., priority 2022, published 2023).
Values joined by “and” are separate entries in the source; they are usually repeats but may differ in a detail not shown here. Equal values may be shown once. Read-outs that look alike come from different tables or passages of the source.

Experiments:
[1] = system: participants with psoriasis; settings: ADVANCE (apremilast arm of cross-study comparison)
[2] = system: participants with psoriasis; settings: Week 16; ESTEEM1
[3] = system: participants with psoriasis; settings: Week 16; ESTEEM2
[4] = system: participants with psoriasis; settings: Week 16; VOYAGE 2
[5] = system: participants with psoriasis
[6] = system: participants with psoriasis; settings: Week 16, VOYAGE 1 & 2
[7] = system: participants with psoriasis; remark: listed apart in the source

| Compound | Proportion of participants who achieve an Static Physician Global Assessment (sPGA) score of 0 or 1 with at least ≥2 grade improvement from baseline at Week 16 (BSA 2-15%) [1] [%] | Proportion of participants who achieve a PASI 90 response [2] [%] | Proportion of participants who achieve a ss-IGA score of 0 or 1 with ≥2-grade improvement from baseline among randomized participants with scalp psoriasis and an ss-IGA score ≥2 at baseline [2] [%] | Proportion of participants who achieve a PASI 90 response [3] [%] | Proportion of participants who achieve a PASI 90 response [4] [% vs 2.4%] | Proportion of participants who achieve an IGA score of clear (0) at Week 16 (BSA >=10%) ([5]; VOYAGE 1, BSA >=10%) [% vs 1.1%] | Change in PSSD Symptom score from baseline: Mean (SD) ([5]; Week 16, VOYAGE 1) | Percent improvement in NAPSI score from baseline: Mean (SD) ([5]; Week 16, VOYAGE 1) | Proportion of participants who achieve a PASI 90 response ([5]; Week 16, VOYAGE 1) | Proportion of participants who achieve a PASI 100 response ([5]; Week 16, VOYAGE 1) [% vs 0.6%] | Proportion of participants who achieve a ss-IGA score of 0 or 1 with ≥2-grade improvement from baseline among randomized participants with scalp psoriasis and an ss-IGA score ≥2 at baseline ([5]; Week 16, VOYAGE 1) | Proportion of participants with ≥4-point reduction (improvement) in PSSD Itch score from baseline among participants with a PSSD Itch score ≥4 at baseline ([5]; Week 16, VOYAGE 1) [% vs 5.7%] | Proportion of participants who achieve an IGA score of 0 or 1 with ≥2 grade improvement from baseline (BSA 10-15%) [6] [% vs 9.1%] | Proportion of participants who achieve an Static Physician Global Assessment (sPGA) score of 0 or 1 with at least ≥2 grade improvement from baseline at Week 16 (BSA 2-15%) ([7]; DISCOVER 1 & 2 (guselkumab arm of cross-study comparison)) [%] | Proportion of participants who achieve an IGA score of 0 or 1 with ≥2 grade improvement from baseline (BSA 3-15%) ([7]; Week 16, DISCOVER 1 & 2, BSA 3-15%) [% vs 12.2%] |
| --- | --- | --- | --- | --- | --- | --- | --- | --- | --- | --- | --- | --- | --- | --- | --- |
| CCOc1cc([C@@H](CS(C)(=O)=O)N2C(=O)c3cccc(NC(C)=O)c3C2=O)ccc1OC [Apremilast] | 21.6 | 9.8 | 46.5 | 8.8 | – | – | – | – | – | – | – | – | – | – | – |
| Guselkumab: fully human IgG1 lambda monoclonal antibody that binds the p19 subunit of human IL-23; heavy chain SEQ ID NO: 9, light chain SEQ ID NO: 10 | – | – | – | – | 70.0 | 47.7 | −41.9 (24.61) vs | 34.37 (42.448) vs Percent | 73.3% vs 2.9% and 73.3% | 37.4 | 83.4% vs 14.5% and 83.4% | 75.0 | 82.9 | 55.7 | 55.7 |
